The structures appear in SMILES notation.

Data on two compounds can be found in patent publication US20240228488A1 (TAKEDA PHARMACEUTICAL COMPANY LIMITED, priority 2021, published 2024).

Assay [1] concerns the target human activated kallikrein enzyme (Homo sapiens, UniProt P03952). The assay can be described thus: Plasma kallikrein inhibition, fluorogenic PFR-AMC substrate, 500 pM activated kallikrein format. It is filed as biochemical. The settings on record: 500 pM activated kallikrein, 300 uM PFR-AMC, 30 min preincubation, 10 min reaction; read-out: Primary Dose Response Assay: Average EC50. In outline:
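High-enzyme format of the fluorogenic peptide assay, with EC50 taken from AMC signal: 500 pM activated kallikrein, 300 uM Pro-Phe-Arg-AMC, 30 min compound preincubation and 10 min reaction, all at room temperature, pH 7.5.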

For assay [2], the target named is T1, plasma kallikrein (Homo sapiens, UniProt P03952).
T1 construct: from tissue
T1 sequence (P03952 391-638 limits assumed): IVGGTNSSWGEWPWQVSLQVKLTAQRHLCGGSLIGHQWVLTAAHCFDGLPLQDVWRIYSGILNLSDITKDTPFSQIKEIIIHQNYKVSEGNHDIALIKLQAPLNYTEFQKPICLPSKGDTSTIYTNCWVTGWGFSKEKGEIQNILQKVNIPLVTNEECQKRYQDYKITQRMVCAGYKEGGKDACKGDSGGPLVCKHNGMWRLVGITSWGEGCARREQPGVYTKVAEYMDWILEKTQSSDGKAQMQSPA
T1 sequence (P03952 20-390 partner limits assumed): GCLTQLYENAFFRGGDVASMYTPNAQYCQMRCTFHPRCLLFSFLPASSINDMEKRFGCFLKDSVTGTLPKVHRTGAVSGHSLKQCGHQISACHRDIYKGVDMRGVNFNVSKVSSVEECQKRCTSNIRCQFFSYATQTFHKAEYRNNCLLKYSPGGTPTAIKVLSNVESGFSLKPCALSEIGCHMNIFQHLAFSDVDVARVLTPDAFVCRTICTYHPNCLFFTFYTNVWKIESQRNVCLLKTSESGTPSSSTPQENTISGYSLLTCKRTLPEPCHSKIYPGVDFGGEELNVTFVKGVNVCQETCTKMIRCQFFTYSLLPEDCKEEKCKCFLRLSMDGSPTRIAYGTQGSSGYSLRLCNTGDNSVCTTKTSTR
The assay can be described thus: Neat human plasma assay, FXIIa contact pathway-activated, PFR-AMC substrate. It is filed as biochemical. The settings on record: citrated human plasma 78% final, 10 nM human FXIIa, 100 μM PFR-AMC; read-out: Human Plasma Assay: IC90. In outline: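 Compound inhibition of plasma kallikrein measured as PFR-AMC (100 μM) cleavage rate over 5 min at room temperature in 78% citrated human plasma activated with 10 nM FXIIa (Tris pH 7.5 buffer). IC50/IC90 from 4-parameter fit of rate versus inhibitor concentration.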

Sequence of human activated kallikrein enzyme (P03952 391-638 limits assumed): as the sequence (P03952 391-638 limits assumed) above
Sequence of human activated kallikrein enzyme (P03952 20-390 partner limits assumed): as the sequence (P03952 20-390 partner limits assumed) above

As to `O=C(Nc1cc(NCc2cn3cc(C4CC4)cc(N4CCNCC4=O)c3n2)ncn1)[C@H]1C[C@@H]1c1cccc(Cl)c1` [Example I-647, (1S,2S)-2-(3-chlorophenyl)-N-(6-(((6-cyclopropyl-8-(2-oxopiperazin-1-yl)imidazo[1,2-a]pyridin-2-yl)methyl)amino)pyrimidin-4-yl)cyclopropane-1-carboxamide], in assay [1], the EC50 (usually the concentration needed to bring the measured effect to its halfway point) was below 1 nM. For the same compound, the IC90 (as a rule, the point of the concentration-response curve where the effect stands at 90%) in assay [2] lay within 400 to 1500 nM.
For `Cc1ccnc([C@H]2C[C@@H]2C(=O)Nc2cc(N[C@H](C)c3cn4cc(C(C)C)cc(N5CC(=O)N(C)C5=O)c4n3)ncn2)n1` [Example I-679, (1S,2S)—N-(6-(((R)-1-(6-isopropyl-8-(3-methyl-2,4-dioxoimidazolidin-1-yl)imidazo[1,2-a]pyridin-2-yl)ethyl)amino)pyrimidin-4-yl)-2-(4-methylpyrimidin-2-yl)cyclopropane-1-carboxamide], in that order: below 1 nM and below 400 nM.
